Assay results from patent publication US10456434B2, “Extracts obtained from cell line cultures from plants belonging to the Oleaceae family (e.g. Syringa vulgaris), their preparation and use” (CRODA ITALIANA S. P. A., priority 2005, dated 2019).
Values after ≈ are worked out from the molar mass of the structure shown.

Experiments:
white blood cells = test: PMA-stimulated white blood cell chemiluminescence; assay type: cell-based; settings: Homo sapiens; 10^6 WBC, PMA 10 nM; read-out: White blood cell chemiluminescence (IC50 mg/ml)
Experimental: Anti-inflammatory activity has been assessed by measuring luminol dependent chemiluminescence generated by free radicals released from whole blood and from white blood cells. The assay has been performed using the following protocol: 10 μl of fresh human blood is mixed with 0.980 ml of Hanks saline solution containing 5×10^−5 M luminol and the test sample (at various concentrations). The chemiluminescent response is recorded continuously for 30 minutes at a temperature of 37° C. The results are expressed as IC50 (mg/ml), i.e. as the minimum sample, concentration inhibiting chemiluminescence by 50% with respect to the control. To isolate white blood cells (WBC) from whole blood one proceeds in the following manner: 1 ml of fresh blood is layered onto a Hipaque gradient (p=1.119) and centrifuged at 250×g for 60 minutes at room temperature. Following centrifugation, the pellet containing the white blood cells is washed twice, using a large volume of cold Hanks saline solution. Finally, the washed WBCs are resuspended in 01 ml di HBSS containing foetal calf serum. 10^6 WBC are added to a chemiluminometer cuvette. 10 μl of PMA (final concentration equal to 10 nM) are added to induce the formation of free radicals. The chemiluminescent response is recorded continuously for 30 minutes at a temperature of 37° C. […]

[1] = Metal chelating activity (spectrophotometric), Cu2+; assay type: binding; settings: chelation equilibrium constant, calculated for a pure phenylpropanoid
From the text: (§1) The chelating activities of Syringa vulgaris extracts, verbascoside and isoverbascoside in relation to Fe^2+, Fe^3+, Cu^2+ and Ni^2+ metal ions has been determined by means of spectrophotometric measurements using a Shimadzu 1770 UV spectrophotometer. The activities of chelating agents depends on the association constant (equilibrium) of their reactions with the metals according to the following reaction:
(§2) [formula] wherein Keq is the equilibrium constant equal to the ratio of concentrations at equilibrium of a complex and product of equilibrium concentrations of metal ions and a chelator:
(§3) [formula] The method used for determining chelating activity is well documented in the literature (Korkina L G, Afarras'er IB. Antioxidant and chelating properties of flavonoids. Adv. Pharmacol., 1997, 38:151-63). The results are expressed as Keg (M^−1) calculated for a pure phenylpropanoid. This way the chelating activity against ferrous (Fe II), ferric (Fe III), copper (Cu II) and nickel ions has been calculated.

[2] = Metal chelating activity (spectrophotometric), Fe2+; assay type: binding; settings: chelation equilibrium constant, calculated for a pure phenylpropanoid
From the text: as §1, §2, §3

[3] = Metal chelating activity (spectrophotometric), Ni2+; assay type: binding; settings: chelation equilibrium constant, calculated for a pure phenylpropanoid
From the text: as §1, §2, §3

platelets = test: Platelet disaggregation 10 minutes after ADP; assay type: cell-based, rabbit; settings: 1.0 mg/ml
Experimental: Platelet enriched rabbit plasma has been used to assess the platelet anti-aggregating and disaggregating properties of Syringa vulgaris Extract 1, verbascoside and isoverbascoside. Platelet rich plasma has been obtained from rabbit venous blood by mixing it with a 3.8% sodium citrate solution (9:1 v/v). The solution has then been centrifuged at 460×g for 20 minutes. The supernatant has been collected and immediately used for the aggregation assays. Platelet aggregation has been recorded using a Chronolog “Ionised calcium platelet aggregometer” (Chrono-log Co., USA). All measurements have been performed at 37° C. with continuous stirring. […] Then 10 μl of a solution of ADP (final concentration—10 μm) has been added and the luminous transmittance continuously recorded. The results are expressed as the DÒ/DÒÊ ratio, where DÒÊ and DÒ are the luminous transmittance values, in the absence and presence of extract respectively. Platelet disaggregation (the disappearance of pre formed aggregates) has been determined using the same luminous transmittance curve 10 minutes following the addition of ADP. The results are expressed as the DR/DRk ratio, where DRk and DR, are the luminous transmittance in the absence and presence of extract. […]

tyrosinase = test: Tyrosinase inhibition, oxidation of L-tyrosine to L-DOPA; assay type: biochemical; settings: 250 μg/ml
From the text: The enzyme tyrosinase catalyses the reactions leading to melanin biosynthesis from tyrosine. […] Substances inhibiting tyrosinase activity produce clearing/bleaching effect on the skin, since they block melanin synthesis. The method used to determine the inhibition of tyrosinase activity in the oxidation reaction of L-tyrosine to L-DOPA is that described in Kim et al. […] Biol. Pharm. Bull. 28(2), 323-327, 2005). The method applied for determination of the inhibition of tyrosinase activity in the conversion of L-DOPA to DOPAquinone is that described in Masamoto et al. (Mushroom tyrosinase inhibitory activity of esculetin isolated from seeds of Euphorbia lathyris L. Biosci. Biotechnol. Biochem., 67(3), 631-634, 2003).

Structure (SMILES) | IC50 (white blood cells) | Cu^2+ (Keq, M^−1) [1] | Fe^2+ (Keq, M^−1) [2] | Ni^2+ (Keq, M^−1) [3] | Disaggregation (% with respect to control) (platelets) | Test L-tyrosine-DOPA inhibitory activity (%) (tyrosinase)
CC1OC(OC2C(O)C(COC(=O)C=Cc3ccc(O)c(O)c3)OC(OCCc3ccc(O)c(O)c3)C2O)C(O)C(O)C1O [Isoverbascoside, b-(3,4-dihydroxyphenyl)-ethyl-O-α-L-ramnopyranosyl(1″-3′)-b-D-(6′-O-caffeoil)glucopyranoside] | 0.25 mg/mL (≈ 400 µM) | 130000 ± 60000 M⁻¹ | 460000 ± 120000 M⁻¹ | 1398 ± 362 M⁻¹ | 75 ± 21% | 10.9%
C[C@@H]1O[C@@H](O[C@@H]2[C@@H](O)[C@H](OCCc3ccc(O)c(O)c3)O[C@H](CO)[C@H]2OC(=O)/C=C/c2ccc(O)c(O)c2)[C@H](O)[C@H](O)[C@H]1O [Verbascoside, b-(3,4-dihydroxyphenyl)-ethyl-O-α-L-ramnopyranosyl (1″-3′)-b-D-(4′-O-caffeoil)-glucopyranoside] | 0.23 mg/mL (≈ 368 µM) | 120000 ± 40000 M⁻¹ | 450000 ± 110000 M⁻¹ | 1427 ± 319 M⁻¹ | 73 ± 21% | 19.6%
